Where two headings read alike, the source gives them in different places.
Columns and labels:
FGF-R1C ECD [1] = target: T1, FGF-R1C ECD (Homo sapiens, UniProt P11362); test: biochemical; format: binding; set-up: DNA constructs for the extracellular domain (ECD) of human FGF-; HPC4 (C); made in house; host or cells: HEK 293-6E
T1 sequence (P11362 22-376 limits assumed): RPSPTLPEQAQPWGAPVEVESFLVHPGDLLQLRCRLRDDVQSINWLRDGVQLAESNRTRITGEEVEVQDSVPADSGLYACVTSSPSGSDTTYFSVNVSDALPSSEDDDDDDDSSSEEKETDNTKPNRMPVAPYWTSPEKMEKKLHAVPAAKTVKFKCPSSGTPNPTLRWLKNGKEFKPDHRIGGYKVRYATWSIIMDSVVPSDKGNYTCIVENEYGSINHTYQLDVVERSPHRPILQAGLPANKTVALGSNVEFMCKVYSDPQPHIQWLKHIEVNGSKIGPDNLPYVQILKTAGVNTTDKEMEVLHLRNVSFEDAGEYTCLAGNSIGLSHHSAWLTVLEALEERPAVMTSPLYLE
Summary of the method: (§1)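 Streptavidin biosensors carrying biotinylated FGF receptor ECD were immersed in peptide (~1 μM for crude single-point runs, a concentration series for purified peptides) and then in peptide-free buffer. KD was obtained by fitting the BLI association and dissociation curves.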

FGF-R3C ECD [2] = target: T2, FGF-R3C ECD (Homo sapiens, UniProt P22607); test: biochemical; format: binding; set-up: DNA constructs for the extracellular domain (ECD) of human FGF-; HPC4 (C); made in house; host or cells: HEK 293-6E
T2 sequence (P22607 23-375 limits assumed): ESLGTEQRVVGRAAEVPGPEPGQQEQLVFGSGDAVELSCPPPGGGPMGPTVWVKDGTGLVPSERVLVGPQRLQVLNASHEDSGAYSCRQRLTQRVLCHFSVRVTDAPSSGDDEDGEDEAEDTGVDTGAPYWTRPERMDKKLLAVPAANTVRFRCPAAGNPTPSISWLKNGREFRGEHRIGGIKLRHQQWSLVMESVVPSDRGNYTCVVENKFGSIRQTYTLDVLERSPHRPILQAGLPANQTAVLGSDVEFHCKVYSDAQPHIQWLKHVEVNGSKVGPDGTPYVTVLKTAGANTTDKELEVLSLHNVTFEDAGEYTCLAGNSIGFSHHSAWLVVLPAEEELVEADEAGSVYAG
Summary of the method: as §1

FGF-R4 ECD [3] = target: T3, FGF-R4 ECD (Homo sapiens, UniProt P22455); test: single concentration BLI of crude peptides; format: binding; conditions: crude NNK peptides, single concentration BLI (Table S3); read-out: KD (4)
T3 construct: DNA constructs for the extracellular domain (ECD) of human FGF-; HPC4 (C); made in house; host or cells: HEK 293-6E
T3 sequence (P22455 22-369 limits assumed): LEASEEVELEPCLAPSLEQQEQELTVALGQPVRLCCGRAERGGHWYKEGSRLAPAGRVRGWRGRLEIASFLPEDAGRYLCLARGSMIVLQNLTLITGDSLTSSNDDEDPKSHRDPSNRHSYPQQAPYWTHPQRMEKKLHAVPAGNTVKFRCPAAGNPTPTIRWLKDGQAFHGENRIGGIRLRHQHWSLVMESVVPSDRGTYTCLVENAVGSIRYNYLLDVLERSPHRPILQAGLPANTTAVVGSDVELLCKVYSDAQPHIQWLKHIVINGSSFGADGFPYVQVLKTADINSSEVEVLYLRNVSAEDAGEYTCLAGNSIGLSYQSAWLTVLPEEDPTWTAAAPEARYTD
Summary of the method: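 BLI, streptavidin sensors loaded with biotinylated receptor ECD. Single-point: ~1 μM crude peptide, PBS pH7.4/0.05% Tween-20/0.01% BSA; association then dissociation in buffer. KD corrected for UPLC-CAD-determined concentration.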

[4] = target: T4, FGFR4/KLB (Fc-fused human FGF-R4 with beta-klotho) (Homo sapiens, UniProt P22455); test: AlphaScreen FGF21 competitive binding assay
T4 sequence (P22455 22-369 limits assumed): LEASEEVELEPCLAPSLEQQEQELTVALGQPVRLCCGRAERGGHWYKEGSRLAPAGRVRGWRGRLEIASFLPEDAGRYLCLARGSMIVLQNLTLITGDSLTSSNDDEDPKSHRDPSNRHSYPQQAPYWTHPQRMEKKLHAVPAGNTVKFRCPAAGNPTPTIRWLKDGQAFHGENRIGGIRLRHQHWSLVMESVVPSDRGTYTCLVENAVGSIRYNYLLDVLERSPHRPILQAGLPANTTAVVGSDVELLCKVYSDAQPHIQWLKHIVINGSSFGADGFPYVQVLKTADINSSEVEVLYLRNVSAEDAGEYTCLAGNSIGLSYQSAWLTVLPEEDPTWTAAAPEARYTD
Method: Alphascreen binding assay
(§2) The competitive binding assay was carried out according to the methods detailed in Hansen. et al using
(§3) AlphaScreen.3 All reagents and samples were prepared in assay buffer: 40mM Hepes, 140mM NaCl, 1mM
(§4) CaCl2, 0,05% Tween20, pH=7.5, 0.1% BSA. In brief, recombinant human beta-klotho (R&D Systems) was
(§5) preincubated for 60 min with the ectodomain, either Fc-fused human FGF-R1alpha(IIIc), FGF-R3alpha(IIIc)
(§6) or FGF-R4 (R&D Systems), and the mixture was added to the test peptides in OptiPlate™ (PerkinElmer).
(§7) Biotinylated FGF21 and heparin were further added to each well. AlphaScreen bead mix (1:1 mix of Protein
(§8) A acceptor beads/ streptavidin-coated donor beads, PerkinElmer) were added to each well incubated
(§9) overnight at RT in the dark, and measured on a plate reader (Envision). Assays were carried out in triplicates
(§10) with concentrations ranging from 3, 10, 30, 100, 300 ,1000 and 3000 nM of peptide. No peptide control
(§11) (media only) was used as a negative control, and unlabeled FGF21 and FGF1 as positive control.
(§12) competing with biotinylated natural FGF21 ligand.

FGF-R4 ECD [5] = target: T3, FGF-R4 ECD; test: multi-concentration BLI of purified peptides; format: binding; conditions: purified NNK library peptides
Summary of the method: as §1

FGF-R1C ECD [6] = target: T1, FGF-R1C ECD; test: biochemical
Summary of the method: as §1

FGF-R3C ECD [7] = target: T2, FGF-R3C ECD; test: biochemical
Summary of the method: as §1

[8] = target: T5, FGFR3c/BKL (Fc-fused human FGF-R3alpha(IIIc) with beta-klotho) (Homo sapiens, UniProt P22607); test: AlphaScreen FGF21 competitive binding assay
T5 sequence (P22607 23-375 limits assumed): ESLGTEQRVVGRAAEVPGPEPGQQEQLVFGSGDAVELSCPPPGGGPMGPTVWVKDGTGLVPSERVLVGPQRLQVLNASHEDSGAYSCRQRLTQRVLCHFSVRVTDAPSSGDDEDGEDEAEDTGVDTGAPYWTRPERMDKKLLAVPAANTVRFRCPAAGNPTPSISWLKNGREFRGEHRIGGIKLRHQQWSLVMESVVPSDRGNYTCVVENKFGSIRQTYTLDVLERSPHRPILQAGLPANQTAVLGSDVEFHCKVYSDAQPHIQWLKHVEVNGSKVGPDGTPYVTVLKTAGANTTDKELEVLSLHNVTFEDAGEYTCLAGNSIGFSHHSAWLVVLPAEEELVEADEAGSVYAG
Method: Alphascreen binding assay
as §2, §3, §4, §5, §6, §7, §8, §9, §10, §11, §12

[9] = target: T6, FGFR1c/KLB (Fc-fused human FGF-R1alpha(IIIc) with beta-klotho) (Homo sapiens, UniProt P11362); test: AlphaScreen FGF21 competitive binding assay
T6 sequence (P11362 22-376 limits assumed): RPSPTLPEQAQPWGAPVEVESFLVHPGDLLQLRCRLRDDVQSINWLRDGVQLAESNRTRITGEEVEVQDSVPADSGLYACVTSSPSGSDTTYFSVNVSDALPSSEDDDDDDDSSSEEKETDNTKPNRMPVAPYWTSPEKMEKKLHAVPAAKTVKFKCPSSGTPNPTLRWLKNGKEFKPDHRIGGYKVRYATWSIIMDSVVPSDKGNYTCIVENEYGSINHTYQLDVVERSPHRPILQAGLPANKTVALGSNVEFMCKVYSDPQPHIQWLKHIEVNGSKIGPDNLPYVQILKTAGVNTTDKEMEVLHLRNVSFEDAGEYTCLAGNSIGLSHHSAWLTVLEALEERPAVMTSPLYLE
Method: Alphascreen binding assay
as §2, §3, §4, §5, §6, §7, §8, §9, §10, §11, §12

| Structure (SMILES) | Kd (FGF-R1C ECD [1]) [nM] | Kd (FGF-R3C ECD [2]) [nM] | Kd (FGF-R4 ECD [3]) [nM] | IC50 [4] [nM] | Kd (FGF-R4 ECD [5]) [nM] | Kd (FGF-R1C ECD [6]) [nM] | Kd (FGF-R3C ECD [7]) [nM] | IC50 [8] [nM] | IC50 [9] [nM] |
| --- | --- | --- | --- | --- | --- | --- | --- | --- | --- |
| CC[C@H](C)[C@@H]1NC(=O)[C@@H](NC(=O)[C@H](CCSC)NC(C)=O)CSSC[C@@H](C(=O)NCC(=O)N[C@@H](CO)C(=O)NCC(=O)N[C@@H](CO)C(=O)N[C@@H](CC(=O)O)C(=O)N[C@@H](Cc2ccc(O)cc2)C(=O)N[C@@H](CCCCN)C(=O)N[C@@H](CC(=O)O)C(=O)N[C@@H](CC(=O)O)C(=O)N[C@@H](CC(=O)O)C(=O)N[C@@H](CC(=O)O)C(=O)N[C@@H](CCCCN)C(N)=O)NC(=O)[C@H](Cc2ccccc2)NC(=O)[C@H](CCCNC(=N)N)NC(=O)[C@H](CCCCN)NC(=O)[C@H](Cc2c[nH]cn2)NC(=O)[C@H](C)NC(=O)[C@H](CC(C)C)NC(=O)[C@H](Cc2ccccc2)NC(=O)[C@H](CCSC)NC(=O)[C@H](CCCCN)NC1=O [4.6] | > 10000 | > 10000 | 97 | > 1000 | 358 | > 1000 | > 1000 | > 1000 | > 1000 |
| CSCC[C@H](N)C(=O)N[C@H]1CSSC[C@@H](C(=O)NCC(=O)N[C@@H](CO)C(=O)NCC(=O)N[C@@H](CO)C(=O)N[C@@H](CC(=O)O)C(=O)N[C@@H](Cc2ccc(O)cc2)C(=O)N[C@@H](CCCCN)C(=O)N[C@@H](CC(=O)O)C(=O)N[C@@H](CC(=O)O)C(=O)N[C@@H](CC(=O)O)C(=O)N[C@@H](CC(=O)O)C(=O)N[C@@H](CCCCN)C(N)=O)NC(=O)[C@H](C(C)C)NC(=O)[C@H](Cc2c[nH]c3ccccc23)NC(=O)[C@H](Cc2ccc(O)cc2)NC(=O)[C@H](CCCNC(=N)N)NC(=O)[C@H](CC(=O)O)NC(=O)[C@H](Cc2ccccc2)NC(=O)[C@H](Cc2c[nH]cn2)NC(=O)[C@H](CCCNC(=N)N)NC(=O)[C@H]([C@@H](C)O)NC(=O)[C@H](Cc2c[nH]c3ccccc23)NC(=O)[C@H](CC(C)C)NC(=O)[C@H](CC(C)C)NC1=O [1C.2] | 95 | > 10000 | > 10000 | > 1000 | > 1000 | 64 | > 1000 | > 1000 | 108 |
| CC[C@H](C)[C@@H]1NC(=O)[C@H](Cc2c[nH]c3ccccc23)NC(=O)[C@@H]2CCCN2C(=O)[C@H](CCC(=O)O)NC(=O)[C@@H](NC(=O)[C@H](CCSC)NC(C)=O)CSSC[C@@H](C(=O)NCC(=O)N[C@@H](CO)C(=O)NCC(=O)N[C@@H](CO)C(=O)N[C@@H](CC(=O)O)C(=O)N[C@@H](Cc2ccc(O)cc2)C(=O)N[C@@H](CCCCN)C(=O)N[C@@H](CC(=O)O)C(=O)N[C@@H](CC(=O)O)C(=O)N[C@@H](CC(=O)O)C(=O)N[C@@H](CC(=O)O)C(=O)N[C@@H](CCCCN)C(N)=O)NC(=O)[C@H](CCCCN)NC(=O)[C@H](CCCCN)NC(=O)[C@H](CC(C)C)NC(=O)[C@H](C(C)C)NC(=O)[C@H](CCCCN)NC(=O)[C@H](Cc2ccc(O)cc2)NC(=O)[C@H]([C@@H](C)CC)NC(=O)[C@H]([C@@H](C)O)NC1=O [4.8] | > 10000 | 1250 | 287 | 945 | 478 | > 1000 | > 1000 | > 1000 | > 1000 |
| CSCC[C@@H]1NC(=O)[C@H](CC(N)=O)NC(=O)[C@H](CO)NC(=O)[C@@H](NC(=O)[C@@H](N)CCSC)CSSC[C@@H](C(=O)NCC(=O)N[C@@H](CO)C(=O)NCC(=O)N[C@@H](CO)C(=O)N[C@@H](CC(=O)O)C(=O)N[C@@H](Cc2ccc(O)cc2)C(=O)N[C@@H](CCCCN)C(=O)N[C@@H](CC(=O)O)C(=O)N[C@@H](CC(=O)O)C(=O)N[C@@H](CC(=O)O)C(=O)N[C@@H](CC(=O)O)C(=O)N[C@@H](CCCCN)C(N)=O)NC(=O)[C@H](C)NC(=O)[C@H](Cc2c[nH]c3ccccc23)NC(=O)[C@H](Cc2c[nH]c3ccccc23)NC(=O)[C@H](CCCNC(=N)N)NC(=O)[C@H](CC(N)=O)NC(=O)[C@H](C)NC(=O)[C@H](CC(C)C)NC(=O)[C@H](CCCCN)NC(=O)[C@H](Cc2c[nH]c3ccccc23)NC1=O [1C.3] | – | – | > 10000 | > 1000 | > 1000 | – | – | – | – |
